Data reported in US8338475B2, “Anti-proliferative pharmaceutical composition” (BioCis Pharma Oy, priority 2003, dated 2012).

Tests used:
[1] = system: WM 266-4 (cutaneous melanoma); experiment: Proliferation assay (CellTiter 96), WM266-4 cells; format: cell-based, human
Description: The cells were cultured in triplicate with or without 2 μM camptothecin (CPT) or 10 mM cis-UCA in a density of 15,000 cells per […]. A, Cells taken from normal pH 7.4 cultures to test conditions at pH 6.5. B, Cells cultured in low pH 6.7 adaptation medium for 3 d, then tested at pH 6.5. C, Cells cultured and tested at pH 7.4.
(§1) Transformed tumour cell lines WM 266-4 and A2058 (cutaneous melanoma), HT-1080 (epithelial fibrosarcoma), HeLa (epithelial adenocarcinoma of cervix), HK293 (kidney epithelial cells) and non-transformed cell line HSF (skin fibroblast from a healthy volunteer donor) of human origin have been described earlier (Li et al. 2003). The K562 (chronic myelogenous leukemia) cells were purchased from American Type Culture Collection.
(§2) The cells were maintained in logarithmic growth phase in IMDM medium (Invitrogen, Paisley, UK) supplemented with 10% fetal calf serum and antibiotics in a humidified incubator at +37° C., 5% CO2. The adherent cells lines were harvested for experiments with 0.25% trypsin-EDTA in PBS for 5 min and then resuspended and washed in medium. After counting of viable cells, 15,000 to 75,000 cells were transferred into flat-bottom 96-well cell culture plates in a volume of 100 or 150 μl.
The proliferation activity of cultured cell lines was quantified in flat-bottom 96-well plates with a modified colorimetric assay based on a tetrazolium derivative (CellTiter 96 Aqueous One Solution Cell Proliferation Assay, Promega). The cells were cultured in the presence of camptothecin and/or cis-UCA for 20 to 92 h, then the proliferation reagent was added for 2 h, and the absorbance at 490 nm was measured in a plate reader. Blank absorption values in wells containing medium without cells were subtracted before comparison analysis.
The cell lines were tested in a 44-h culture at pH 6.5 with or without 2 μM camptothecin and 10 mM cis-UCA at 15,000 cells per 100 μl total volume. […] In order to further characterise the effective anti-proliferative concentration range of cis-UCA, proliferation was measured in a 44-h assay at pH 6.5 with cis-UCA concentration ranging from 30 μM to 30 mM.

[2] = system: HK293 (kidney epithelial cells); experiment: Proliferation assay (CellTiter 96), HK293 cells; format: cell-based, human; conditions: pH 6.5, 44 h, cis-UCA 10 mM, CPT 2 μM, 15,000 cells per 100 μl
Description: as §1, §2
(§3) The proliferation activity of cultured cell lines was quantified in flat-bottom 96-well plates with a modified colorimetric assay based on a tetrazolium derivative (CellTiter 96 Aqueous One Solution Cell Proliferation Assay, Promega). The cells were cultured in the presence of camptothecin and/or cis-UCA for 20 to 92 h, then the proliferation reagent was added for 2 h, and the absorbance at 490 nm was measured in a plate reader. […]

[3] = system: HeLa (epithelial adenocarcinoma of cervix); experiment: Proliferation assay (CellTiter 96), HeLa cells; format: cell-based, human; conditions: pH 6.5, 44 h, cis-UCA 10 mM, CPT 2 μM, 15,000 cells per 100 μl
Description: as §1, §2, §3

[4] = system: A2058 human cutaneous melanoma tumours; experiment: Tumour growth in SCID/SCID mice in vivo; conditions: 16-day treatment, intratumoural 30 mM cis-UCA, 1 μM CPT, pH 6.5
Description: All injection solutions were adjusted to pH 6.5. The data points have been normalised to unity tumour size at day 0. Data from five mice in each group is included (mean, SD).
The A2058 human cutaneous melanoma cells were cultured under normal cell culture conditions prior to injection into mice. Two million A2058 cells were injected s.c. into the neck of SCID/SCID mice (Charles River Laboratories, Germany). Tumours were allowed to develop for two weeks to the size of a small pearl before the treatments. The mice were divided into four groups of six animals, each containing three males and three females. Each tumour was first injected 50 μl of one of the test solutions (A: PBS; B: 30 mM cis-UCA; C: 1 μM CPT; D: 30 mM cis-UCA+1 μM CPT) three times a week (Mon-Wed-Fri). After day 7 from the beginning of injections, the injection volume was increased to 150 μl injected into three different sides of the tumour. Tumour length and width were measured with a caliper three times a week before each injection. Tumour planar area was calculated as length×width. The tumour growth inhibition efficiency I of the treatments was calculated according to Equation 1:
[formula] where Sr represents the normalised relative size of the tumour in the control group (A) or any of the treatment groups (T), and d0 to d16 are the (eight) measuring time points during the 16-day treatment period.
After 16 days from the first injection, all the animals were sacrificed with CO2, and the tumours were collected and fixed in formalin for further studies. In groups A, C, and D, one mouse was sacrificed before the end of the experiment because of poor development of the tumour (no measurable tumour at day 0). One animal in group B was sacrificed prematurely after it had severly scratched the tumour. Data from these animals were not included in the calculation of the tumour size results. All the removed animals were female mice. Immunohistochemical data was obtained also from the removed mice except from group B. The experiments were conducted under a protocol approved by the local ethics committee.

In the case of `O=C(O)/C=C\c1c[nH]cn1` [cis-UCA, cis-urocanic acid], the “percentage inhibition of proliferation” value ([1]; 10 mM cis-UCA alone, cells from pH 7.4 cultures tested at pH 6.5, 92 h (FIG. 2A)) is reported as 36%, the “percentage inhibition of proliferation” value ([1]; 10 mM cis-UCA, cells adapted to pH 6.7 for 3 days, tested at pH 6.5, 92 h (FIG. 2B)) is reported as 28% and the “Inhibition of proliferation (mean percentage inhibition ± SD compared with untreated control)” value ([1]; pH 6.5, 44 h, cis-UCA 10 mM, CPT 2 μM, 15,000 cells per 100 μl) is reported as 20 ± 0.6%. For the same compound, the “Inhibition of proliferation (mean percentage inhibition ± SD compared with untreated control)” value [2] was 22 ± 0.1%, the “Inhibition of proliferation (mean percentage inhibition ± SD compared with untreated control)” value [3] was 50 ± 1.7% and the “Growth suppression, female” value ([4]; female mice) was 72.0%. For the same compound, the “Growth suppression, male” value ([4]; male mice) was 55.9%.
